# According to ChEMBL document CHEMBL1201862, “PubChem BioAssay data set” (2004):
#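 Tested at 5 concentrations; 48 h exposure; 96-well plates; endpoints linearly interpolated, else capped at highest concentration. Abbreviation: GI50, concentration required for 50% inhibition of growth.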 The source made the active and inactive calls. Rule as the data show it: active = GI50 up to about 1.1 µM and inactive = higher.
# What was measured:
# Experiment in all cases: inhibition of tumour cell growth, NCI panel, 48 h
# [1] = test system: 786-0
# [2] = test system: A498
# [3] = test system: A549
# [4] = test system: ACHN
# [5] = test system: BT-549
# [6] = test system: CCRF-CEM
# [7] = test system: DU-145
# [8] = test system: EKVX
# [9] = test system: HCT-116
# [10] = test system: HCT-15
# [11] = test system: HL-60
# [12] = test system: HOP-62
# [13] = test system: HOP-92
# [14] = test system: HT-29
# [15] = test system: IGROV-1
# [16] = test system: K562
# [17] = test system: KM12
# [18] = test system: LOX IMVI
# [19] = test system: M14
# [20] = test system: MCF7
# [21] = test system: MDA-MB-231
# [22] = test system: MDA-MB-435
# [23] = test system: MDA-N
# [24] = test system: MOLT-4
# [25] = test system: Malme-3M
# [26] = test system: NCI-H226
# [27] = test system: NCI-H23
# [28] = test system: NCI-H460
# [29] = test system: OVCAR-3
# [30] = test system: OVCAR-5
# [31] = test system: OVCAR-8
# [32] = test system: PC-3
# [33] = test system: RPMI-8226
# [34] = test system: RXF 393
# [35] = test system: SF-268
# [36] = test system: SF-295
# [37] = test system: SF-539
# [38] = test system: SK-MEL-28
# [39] = test system: SK-MEL-2
# [40] = test system: SK-OV-3
# [41] = test system: SN12C
# [42] = test system: SNB-19
# [43] = test system: SNB-75
# [44] = test system: SR
# [45] = test system: SW-620
# [46] = test system: T47D
# [47] = test system: TK-10
# [48] = test system: U-251
# [49] = test system: UACC-257
# [50] = test system: UACC-62
# [51] = test system: UO-31
# [52] = test system: HCC 2998
# [53] = test system: Hs-578T
# [54] = test system: NCI/ADR-RES
# [55] = test system: OVCAR-4
# [56] = test system: SK-MEL-5
smiles,measurement,setting,value
CC(=O)C(=[N+]=[N-])C(=O)N(C)CCC#N,GI50,[1],> 10 µM (inactive)
same,GI50,[2],> 10 µM (inactive)
same,GI50,[3],> 10 µM (inactive)
same,GI50,[4],> 10 µM (inactive)
same,GI50,[5],> 10 µM (inactive)
same,GI50,[6],> 10 µM (inactive)
same,GI50,[7],> 10 µM (inactive)
same,GI50,[8],> 10 µM (inactive)
same,GI50,[9],> 10 µM (inactive)
same,GI50,[10],> 10 µM
same,GI50,[11],> 10 µM (inactive)
same,GI50,[12],> 10 µM (inactive)
same,GI50,[13],> 10 µM (inactive)
same,GI50,[14],> 10 µM (inactive)
same,GI50,[15],> 10 µM (inactive)
same,GI50,[16],> 10 µM (inactive)
same,GI50,[17],> 10 µM (inactive)
same,GI50,[18],> 10 µM (inactive)
same,GI50,[19],> 10 µM (inactive)
same,GI50,[20],> 10 µM (inactive)
same,GI50,[21],> 10 µM (inactive)
same,GI50,[22],> 10 µM (inactive)
same,GI50,[23],> 10 µM (inactive)
same,GI50,[24],> 10 µM (inactive)
same,GI50,[25],> 10 µM (inactive)
same,GI50,[26],> 10 µM (inactive)
same,GI50,[27],> 10 µM (inactive)
same,GI50,[28],> 10 µM (inactive)
same,GI50,[29],> 10 µM (inactive)
same,GI50,[30],> 10 µM (inactive)
same,GI50,[31],> 10 µM (inactive)
same,GI50,[32],> 10 µM (inactive)
same,GI50,[33],> 10 µM (inactive)
same,GI50,[34],> 10 µM (inactive)
same,GI50,[35],> 10 µM (inactive)
same,GI50,[36],> 10 µM (inactive)
same,GI50,[37],> 10 µM (inactive)
same,GI50,[38],> 10 µM (inactive)
same,GI50,[39],> 10 µM (inactive)
same,GI50,[40],> 10 µM (inactive)
same,GI50,[41],> 10 µM (inactive)
same,GI50,[42],> 10 µM (inactive)
same,GI50,[43],118 nM (active)
same,GI50,[44],> 10 µM (inactive)
same,GI50,[45],> 10 µM (inactive)
same,GI50,[46],> 10 µM (inactive)
same,GI50,[47],> 10 µM (inactive)
same,GI50,[48],> 10 µM (inactive)
same,GI50,[49],> 10 µM (inactive)
same,GI50,[50],3.58 µM (inactive)
same,GI50,[51],> 10 µM (inactive)
CCc1nc(Cl)c(Cl)c(Cl)n1,GI50,[1],> 100 µM (inactive)
same,GI50,[3],> 100 µM (inactive)
same,GI50,[4],> 100 µM (inactive)
same,GI50,[5],> 100 µM (inactive)
same,GI50,[6],> 100 µM (inactive)
same,GI50,[8],> 100 µM (inactive)
same,GI50,[52],> 100 µM (inactive)
same,GI50,[10],> 100 µM
same,GI50,[11],> 100 µM (inactive)
same,GI50,[12],> 100 µM (inactive)
same,GI50,[14],> 100 µM (inactive)
same,GI50,[53],> 100 µM (inactive)
same,GI50,[15],> 100 µM (inactive)
same,GI50,[16],> 100 µM (inactive)
same,GI50,[17],> 100 µM (inactive)
same,GI50,[18],> 100 µM (inactive)
same,GI50,[19],> 100 µM (inactive)
same,GI50,[20],> 100 µM (inactive)
same,GI50,[22],> 100 µM (inactive)
same,GI50,[24],> 100 µM (inactive)
same,GI50,[25],> 100 µM (inactive)
same,GI50,[26],> 100 µM (inactive)
same,GI50,[27],> 100 µM (inactive)
same,GI50,[28],> 100 µM (inactive)
same,GI50,[54],> 100 µM (inactive)
same,GI50,[29],> 100 µM (inactive)
same,GI50,[55],> 100 µM (inactive)
same,GI50,[30],> 100 µM (inactive)
same,GI50,[31],> 100 µM (inactive)
same,GI50,[32],> 100 µM (inactive)
same,GI50,[33],> 100 µM (inactive)
same,GI50,[34],> 100 µM (inactive)
same,GI50,[35],> 100 µM (inactive)
same,GI50,[36],> 100 µM (inactive)
same,GI50,[37],> 100 µM (inactive)
same,GI50,[38],> 100 µM (inactive)
same,GI50,[39],> 100 µM (inactive)
same,GI50,[56],> 100 µM (inactive)
same,GI50,[40],> 100 µM (inactive)
same,GI50,[41],> 100 µM (inactive)
same,GI50,[42],> 100 µM (inactive)
same,GI50,[43],242 nM (active)
same,GI50,[44],> 100 µM (inactive)
same,GI50,[45],> 100 µM (inactive)
same,GI50,[47],> 100 µM (inactive)
same,GI50,[48],> 100 µM (inactive)
same,GI50,[49],> 100 µM (inactive)
same,GI50,[50],> 100 µM (inactive)
same,GI50,[51],> 100 µM (inactive)
